Reference: publication PMC5490255, “Minute Impurities Contribute Significantly to Olfactory Receptor Ligand Studies: Tales from Testing the Vibration Theory” (eNeuro, 2017)

What was measured:
[1] = target: T1, Or42b (dOr42b) (Drosophila melanogaster, UniProt Q9V9I4); assay: GC-coupled calcium imaging (GCaMP6m) of Or42b neurons; conditions: inhibitory (calcium decrease) at own elution time, direct receptor action not separately proven
T1 construct: native receptor in Or42b olfactory sensory neurons of living female flies (Or42b-Gal4 > UAS-GCaMP6m); calcium imaging of antenna or glomerulus DM1; endogenous Orco; with Odorant receptor coreceptor
T1 sequence (Q9V9I4 1-399): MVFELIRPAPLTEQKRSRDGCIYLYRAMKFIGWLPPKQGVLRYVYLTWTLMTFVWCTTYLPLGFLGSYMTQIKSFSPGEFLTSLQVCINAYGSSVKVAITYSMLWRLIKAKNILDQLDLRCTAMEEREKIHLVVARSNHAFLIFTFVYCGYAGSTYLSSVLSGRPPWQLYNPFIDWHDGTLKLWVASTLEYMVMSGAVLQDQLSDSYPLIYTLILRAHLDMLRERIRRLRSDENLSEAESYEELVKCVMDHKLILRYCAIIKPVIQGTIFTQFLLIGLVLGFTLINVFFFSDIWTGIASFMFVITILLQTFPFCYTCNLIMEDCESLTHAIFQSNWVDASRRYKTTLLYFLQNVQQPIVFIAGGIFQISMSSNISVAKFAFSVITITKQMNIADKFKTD
T1 sequence (Q9VNB5 1-486 partner): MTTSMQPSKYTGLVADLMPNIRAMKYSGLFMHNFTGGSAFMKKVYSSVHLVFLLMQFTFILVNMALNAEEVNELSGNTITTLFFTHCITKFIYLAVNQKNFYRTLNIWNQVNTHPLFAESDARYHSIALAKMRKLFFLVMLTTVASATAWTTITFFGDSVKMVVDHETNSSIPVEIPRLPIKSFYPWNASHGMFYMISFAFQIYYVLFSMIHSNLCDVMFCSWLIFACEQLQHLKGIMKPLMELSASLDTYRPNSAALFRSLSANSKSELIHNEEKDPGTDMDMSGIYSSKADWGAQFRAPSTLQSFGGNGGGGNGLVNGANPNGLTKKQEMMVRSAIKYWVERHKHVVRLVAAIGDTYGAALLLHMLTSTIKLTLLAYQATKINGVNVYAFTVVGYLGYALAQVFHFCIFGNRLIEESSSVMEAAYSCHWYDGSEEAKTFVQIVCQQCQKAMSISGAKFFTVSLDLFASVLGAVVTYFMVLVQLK

[2] = target: T1, Or42b (dOr42b); assay: GC-coupled antennal calcium imaging (GCaMP6m) of Or42b neurons, single dose; conditions: agonist, 10^-2 dilution
[3] = GC-purified eluate of headspace

SMILES	GC-coupled antennal calcium imaging (GCaMP6m) of Or42b neurons, single dose [2, 3]	also measured
O=Cc1ccccc1 [benzaldehyde-d5]		GC-coupled calcium imaging (GCaMP6m) of Or42b neurons ([1]; 10^-2 and 10^-1 dilution, deuterated compound, excitation without GC due to ethyl acetate impurity): response to either benzaldehyde-h or benzaldehyde-d5 was inhibitory at the elution time of benzaldehyde
O=Cc1ccccc1 [benzaldehyde-h]		GC-coupled calcium imaging (GCaMP6m) of Or42b neurons ([1]; 10^-2 dilution): response to either benzaldehyde-h or benzaldehyde-d5 was inhibitory at the elution time of benzaldehyde
CCOC(=O)C[C@H](C)O [ethyl (S)-(+)-3-hydroxybutyrate]	ethyl propionate, propyl acetate, and ethyl (S)-(+)-3-hydroxybutyrate all elicited responses that decayed slowly	
CCCC(=O)OCC [ethyl butyrate]		GC-coupled antennal calcium imaging (GCaMP6m) of Or42b neurons, single dose ([2]; GC-purified, own elution peak (sample also held other active impurities)): unknown, and one corresponding to ethyl butyrate itself
CCOC(=O)CC [ethyl propionate]	ethyl propionate, propyl acetate, and ethyl (S)-(+)-3-hydroxybutyrate all elicited responses that decayed slowly	
CCCOC(C)=O [propyl acetate]	ethyl propionate, propyl acetate, and ethyl (S)-(+)-3-hydroxybutyrate all elicited responses that decayed slowly	
